Target: T1, PARP1 (Homo sapiens, UniProt P09874)
T1 construct: purchased BPS Bioscience
Test: PARP1 Biochemical Assay (BPS Bioscience kit, chemiluminescence)
Conditions: histone-coated plate, biotinilated NAD+, 25° C. for 60 min, luminescence, read-out: PARP 1 inhibition IC50
Summary of the method: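 Human PARP1 (25–75 ng/well) with activated DNA was incubated with compound on histone-coated wells. Biotinylated NAD+ was added and the reaction ran 60 min at 25 °C. Ribosylation was detected by streptavidin-HRP chemiluminescence, % inhibition was normalised to enzyme-free and uninhibited controls, and IC50 was fitted from % inhibition versus concentration.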

T1 sequence (P09874 whole entry): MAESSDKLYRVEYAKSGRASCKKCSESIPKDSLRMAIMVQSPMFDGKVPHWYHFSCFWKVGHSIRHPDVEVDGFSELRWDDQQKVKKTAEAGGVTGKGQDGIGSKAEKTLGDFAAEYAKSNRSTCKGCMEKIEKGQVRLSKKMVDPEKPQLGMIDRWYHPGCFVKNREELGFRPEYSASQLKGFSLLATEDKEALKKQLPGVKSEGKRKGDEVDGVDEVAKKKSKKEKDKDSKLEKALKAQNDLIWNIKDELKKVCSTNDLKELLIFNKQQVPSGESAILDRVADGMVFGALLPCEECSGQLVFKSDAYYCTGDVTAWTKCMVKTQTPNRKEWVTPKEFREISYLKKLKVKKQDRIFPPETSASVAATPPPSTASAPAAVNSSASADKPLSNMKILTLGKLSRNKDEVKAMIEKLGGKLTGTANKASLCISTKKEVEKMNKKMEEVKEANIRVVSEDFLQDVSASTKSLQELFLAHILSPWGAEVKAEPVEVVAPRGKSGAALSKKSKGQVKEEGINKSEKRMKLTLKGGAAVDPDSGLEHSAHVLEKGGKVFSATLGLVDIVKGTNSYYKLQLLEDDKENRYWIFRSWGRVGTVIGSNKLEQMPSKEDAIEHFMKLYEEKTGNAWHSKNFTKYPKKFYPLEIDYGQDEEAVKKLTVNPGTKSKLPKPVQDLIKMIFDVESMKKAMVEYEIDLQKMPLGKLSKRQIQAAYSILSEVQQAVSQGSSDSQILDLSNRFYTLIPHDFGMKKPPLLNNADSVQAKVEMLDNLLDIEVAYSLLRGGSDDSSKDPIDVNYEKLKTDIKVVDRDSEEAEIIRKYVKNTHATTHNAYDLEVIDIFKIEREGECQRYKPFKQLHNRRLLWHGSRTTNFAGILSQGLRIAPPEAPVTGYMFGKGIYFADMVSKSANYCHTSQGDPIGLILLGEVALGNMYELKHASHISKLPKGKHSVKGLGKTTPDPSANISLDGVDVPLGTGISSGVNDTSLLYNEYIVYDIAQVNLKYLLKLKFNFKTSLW

| IC50 | Compound |
| --- | --- |
| 0.501 to 5 µM | O=c1[nH]c(C2=C[C@H](N3CCN(c4ccc(-c5ccccc5)cc4)CC3)CC2)nc2c1CC1(CC2)CC1 [Compound 158, (R)-2′-(3-(4-([1,1′-biphenyl]-4-yl)piperazin-1-yl)cyclopent-1-en-1-yl)-7′,8′-dihydro-3′H-spiro[cyclopropane-1,6′-quinazolin]-4′(5′H)-one] |
| 5 to 500 µM | O=c1[nH]c(C2=CC(N3C4CCC3CN(c3ccc(Cl)cc3)C4)CC2)nc2c1CC1(CC2)CC1 (centres unmarked) [Compound 159, 2′-(3-(3-(4-chlorophenyl)-3,8-diazabicyclo[3.2.1]octan-8-yl)cyclopent-1-en-1-yl)-7′,8′-dihydro-3′H-spiro[cyclopropane-1,6′-quinazolin]-4′(5′H)-one] |

Source: patent publication US9359367B2, “Tetrahydroquinazolinone derivatives as PARP inhibitors” (Lupin Limited, priority 2012, dated 2016)
